Earlier results on 1 molecule are cited in patent US10213524B2, “Coating comprising strontium for body implants” (ELOS MEDTECH PINOL A/S, priority 2012, dated 2019).

The series concerns mice. The settings on record: intravenous injection.

With `CC(=O)[O-].CC(=O)[O-].[Sr+2]` [strontium acetate], the “toxic concentration (can cause mortality)” value is listed as ~40 mg/kg Sr.
